Data as given in the supplement of paper PMC10307832.

What was measured:
Assay in all cases: relative viability (nuclei count vs DMSO), 5 days (fraction); higher = more cells survive
EHT 1864 + Vorinostat = compound: C1COCCN1CC2=CC(=O)C(=CO2)OCCCCCSC3=C4C=CC(=CC4=NC=C3)C(F)(F)F [EHT 1864] + O=C(CCCCCCC(=O)Nc1ccccc1)NO [Vorinostat] (partner 1 µM)
In short: (§1)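 Lung cancer cell lines were pin-tool dosed in 1536-well plates on the day after seeding, with either a lone drug or a fixed anchor-drug dose plus five library-drug doses (not always all listed) in √10 steps. Nuclei were counted on 4× images after 5 days. Relative viability is the ratio of treated-well to vehicle-well nuclei counts, with each value a median of duplicate plates.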

EHT 1864 + Palbociclib = compound: C1COCCN1CC2=CC(=O)C(=CO2)OCCCCCSC3=C4C=CC(=CC4=NC=C3)C(F)(F)F [EHT 1864] + CC(=O)c1c(C)c2cnc(Nc3ccc(N4CCNCC4)cn3)nc2n(C2CCCC2)c1=O [Palbociclib] (partner 0.5 µM)
In short: as §1

EHT 1864 + Dasatinib = compound: C1COCCN1CC2=CC(=O)C(=CO2)OCCCCCSC3=C4C=CC(=CC4=NC=C3)C(F)(F)F [EHT 1864] + Cc1nc(Nc2ncc(C(=O)Nc3c(C)cccc3Cl)s2)cc(N2CCN(CCO)CC2)n1 [Dasatinib] (partner 0.075 µM)
In short: as §1

EHT 1864 + Pemetrexed = compound: C1COCCN1CC2=CC(=O)C(=CO2)OCCCCCSC3=C4C=CC(=CC4=NC=C3)C(F)(F)F [EHT 1864] + Nc1nc2[nH]cc(CCc3ccc(C(=O)N[C@@H](CCC(=O)O)C(=O)O)cc3)c2c(=O)[nH]1 [Pemetrexed] (partner 0.2 µM)
In short: as §1

Cell Line	relative viability (EHT 1864 + Vorinostat; first compound 0.04 µM)	relative viability (EHT 1864 + Vorinostat; first compound 0.1265 µM)	relative viability (EHT 1864 + Vorinostat; first compound 0.4 µM)	relative viability (EHT 1864 + Vorinostat; first compound 1.265 µM)	relative viability (EHT 1864 + Vorinostat; first compound 4 µM)	relative viability (EHT 1864 + Palbociclib; first compound 0.04 µM)	relative viability (EHT 1864 + Palbociclib; first compound 0.1265 µM)	relative viability (EHT 1864 + Palbociclib; first compound 0.4 µM)	relative viability (EHT 1864 + Palbociclib; first compound 1.265 µM)	relative viability (EHT 1864 + Palbociclib; first compound 4 µM)	relative viability (EHT 1864 + Dasatinib; first compound 0.04 µM)	relative viability (EHT 1864 + Dasatinib; first compound 0.1265 µM)	relative viability (EHT 1864 + Dasatinib; first compound 0.4 µM)	relative viability (EHT 1864 + Dasatinib; first compound 1.265 µM)	relative viability (EHT 1864 + Dasatinib; first compound 4 µM)	relative viability (EHT 1864 + Pemetrexed; first compound 0.04 µM)	relative viability (EHT 1864 + Pemetrexed; first compound 0.1265 µM)	relative viability (EHT 1864 + Pemetrexed; first compound 0.4 µM)	relative viability (EHT 1864 + Pemetrexed; first compound 1.265 µM)	relative viability (EHT 1864 + Pemetrexed; first compound 4 µM)
201T	0.901	0.876	1.01	0.923	0.811	0.345	0.36	0.353	0.307	0.356	0.563	0.587	0.589	0.473	0.528	0.346	0.326	0.351	0.266	0.291
A-427	0.928	0.819	0.885	0.879	0.801	0.547	0.485	0.535	0.545	0.494	0.643	0.655	0.613	0.705	0.623	0.979	1.01	0.952	0.931	0.935
ABC-1	1.22	0.978	0.928	1.07	1.12	0.629	0.631	0.692	0.687	0.577	0.504		0.631	0.488	0.439					
BEN	0.528	0.579	0.636	0.648	0.57	0.468	0.493	0.472	0.435	0.47	0.384	0.279	0.377	0.308	0.36	0.763	0.678	0.908	0.697	0.715
CAL-12T	0.671	0.553	0.644	0.775	0.812	0.409	0.357	0.459	0.518	0.443	0.54	0.38	0.409	0.353	0.483	1.08	1.12	1.09	1.18	0.964
COR-L23	0.476	0.333	0.476	0.435	0.433	0.336	0.216	0.336	0.283	0.272	0.492	0.396	0.467	0.485	0.439	0.197	0.193	0.196	0.194	0.214
COR-L 105	0.99	0.699	0.949	0.847	0.778	0.362	0.417	0.411	0.414	0.41	0.415	0.314	0.34	0.334	0.396	1.03	1.06	0.966	1.01	0.984
ChaGo-K-1	0.785	0.76	0.72	0.811	0.76	0.946	0.904	0.951	0.852	0.911	0.587	0.551	0.619	0.602	0.616	0.261	0.27	0.25	0.264	0.256
EKVX	0.749	0.524	0.69	0.743	0.631	0.351	0.401	0.441	0.292	0.374	0.631	0.436	0.536	0.51	0.58	0.362	0.381	0.404	0.34	0.495
EMC-BAC-2	0.45	0.383	0.503	0.427	0.504	0.528	0.491	0.52	0.492	0.518	0.359	0.342	0.338	0.276	0.325	0.454	0.421	0.491	0.439	0.432
EPLC-272H	0.454	0.565	0.567	0.662	0.33	0.356	0.353	0.317	0.33	0.352	0.359	0.327	0.395	0.452	0.275	0.317	0.332	0.317	0.365	0.356
H3255	0.752	0.717		0.851	0.794	0.298	0.322	0.306	0.31	0.312	0.437	0.391	0.346	0.344	0.343	0.532	0.603	0.576	0.572	0.561
HARA	0.514	0.366	0.715	0.582	0.229	0.269	0.226	0.215	0.26	0.291	0.236	0.246	0.207	0.19	0.255	0.27		0.267	0.3	0.234
HCC-15	0.77		0.838	0.81	0.929	0.76		0.78	0.682	0.72	0.56		0.623	0.618	0.543	0.224		0.24	0.226	0.218
HCC-44	1.08	0.984	1.06	1.08	1.13	0.985	0.999	0.94	0.899	0.918						0.603	0.594	0.618	0.674	0.674
HCC-78	0.377	0.429	0.421	0.429	0.467	0.414	0.568	0.46	0.493	0.478	0.365	0.367	0.357	0.338	0.337	0.868	0.866	0.823	0.889	0.937
HCC-366	0.336	0.0895	0.312	0.327	0.337	0.42	0.319	0.348	0.327	0.361	0.609	0.602	0.638	0.596	0.771	0.159	0.145	0.136	0.15	0.152
HCC-827	0.932	0.59	0.843	0.96	0.602	0.57	0.498	0.508	0.473	0.386	0.358	0.328	0.268	0.248	0.269	0.279	0.27	0.227	0.3	0.235

Cell Line	relative viability (EHT 1864 + Vorinostat; first compound 0.04 µM)	relative viability (EHT 1864 + Vorinostat; first compound 0.1265 µM)	relative viability (EHT 1864 + Vorinostat; first compound 0.4 µM)	relative viability (EHT 1864 + Vorinostat; first compound 1.265 µM)	relative viability (EHT 1864 + Vorinostat; first compound 4 µM)	relative viability (EHT 1864 + Palbociclib; first compound 0.04 µM)	relative viability (EHT 1864 + Palbociclib; first compound 0.1265 µM)	relative viability (EHT 1864 + Palbociclib; first compound 0.4 µM)	relative viability (EHT 1864 + Palbociclib; first compound 1.265 µM)	relative viability (EHT 1864 + Palbociclib; first compound 4 µM)	relative viability (EHT 1864 + Dasatinib; first compound 0.04 µM)	relative viability (EHT 1864 + Dasatinib; first compound 0.1265 µM)	relative viability (EHT 1864 + Dasatinib; first compound 0.4 µM)	relative viability (EHT 1864 + Dasatinib; first compound 1.265 µM)	relative viability (EHT 1864 + Dasatinib; first compound 4 µM)	relative viability (EHT 1864 + Pemetrexed; first compound 0.04 µM)	relative viability (EHT 1864 + Pemetrexed; first compound 0.1265 µM)	relative viability (EHT 1864 + Pemetrexed; first compound 0.4 µM)	relative viability (EHT 1864 + Pemetrexed; first compound 1.265 µM)	relative viability (EHT 1864 + Pemetrexed; first compound 4 µM)
HOP-62	0.631		0.616	0.676	0.667	0.453		0.516	0.438	0.425	0.561		0.74	0.589	0.84	0.438		0.269	0.388	0.314
IA-LM	0.917		0.853	0.946	1.24															
LC-2-ad	0.659	0.432	0.677	0.648	0.625	0.481	0.436	0.447	0.46	0.464	0.65		0.617	0.54	0.659	0.265	0.271	0.247	0.274	0.308
LCLC-97TM1	0.848	0.509	0.813	0.613	0.74	0.225	0.15	0.183	0.187	0.241	0.888	0.748	0.828	0.727	0.8	0.205	0.15	0.169	0.185	0.15
LCLC-103H	0.758	0.666	0.791	0.779	0.712	0.506	0.393	0.504	0.467	0.498	0.409	0.399	0.373	0.431	0.505	0.431	0.45	0.506	0.468	0.5
LK-2	0.312	0.265	0.206	0.253	0.284	0.67		0.523	0.639	0.588	0.36		0.353	0.246	0.257	0.305		0.259	0.288	0.25
LOU-NH91	0.924	0.799	1.02	0.876	0.856	0.512	0.524	0.53	0.495	0.589	0.543	0.5	0.56	0.628	0.486	0.347	0.382	0.396	0.421	0.391
LU99A	0.58	0.347	0.426	0.579	0.324	0.438	0.375	0.364	0.396	0.374	0.482	0.413	0.613	0.564	0.436	0.196	0.178	0.179	0.186	0.19
LXF-289	0.773	0.697	0.712	0.735	0.734	0.594	0.572	0.542	0.537	0.581	0.237	0.239	0.253	0.171	0.207	0.857	0.894	0.835	0.769	0.843
NCI-H23	0.627	0.343	0.582	0.578	0.532	0.559	0.429	0.531	0.546	0.492	0.741	0.536	0.522	0.481	0.779	0.715	0.549	0.632	0.671	0.748
NCI-H322M	0.856	0.921	0.863	0.807	0.789	0.488	0.488	0.434	0.456	0.465	0.256	0.24	0.283	0.23	0.234	0.606	0.64	0.596	0.678	0.604
NCI-H358	0.645	0.652	0.612	0.68	0.559	0.14	0.117	0.133	0.135	0.124	0.215	0.145	0.17	0.174	0.186	0.173	0.169	0.178	0.189	0.168
NCI-H441	0.975		0.713	0.75	0.735	0.233		0.215	0.195	0.226	0.562	0.532	0.557	0.649	0.603	0.28		0.286	0.241	0.255
NCI-H596	0.724	0.476	0.694	0.577	0.657						0.701	0.592	0.533	0.554	0.664	0.554	0.513	0.447	0.575	0.468
NCI-H727	1.47	1.31	1.07	1.26	1.29	0.663	0.642	0.626	0.595	0.653	0.397	0.334	0.344	0.371	0.343					
NCI-H1563											0.437	0.466	0.469	0.43	0.489	0.682	0.709	0.742	0.626	0.74
NCI-H1648	0.562		0.436	0.411	0.644	0.261		0.269	0.258	0.278						0.827		0.673	0.655	0.726
NCI-H1792						0.618	0.694	0.683	0.626	0.742	0.755	0.778	0.714	0.73	0.894	0.804		0.735	0.776	1.1
